Experimental data taken from article PMC9820430, “New Affordable Methods for Large-Scale Isolation of Major Olive Secoiridoids and Systematic Comparative Study of Their Antiproliferative/Cytotoxic Effect on Multiple Cancer Cell Lines of Different Cancer Origins” (International Journal of Molecular Sciences, 2022).
Where two headings read alike, the source gives them in different places. Marks after values point to notes of the source that are not given here.

Assays:
WJ-MSC = experiment: ATP-based luminescence cell viability assay (ViaLight), 72 h; set-up: species or system human; conditions: WJ-MSC (mesenchymal cells), 72 h treatment, read-out: EC50 Values of Olive Oil Polyphenols
Experimental: The antiproliferative/cytotoxic effects of the selected OOPs on each cell line were assessed by measuring the cellular ATP levels after 72 h treatments using an ATP-based luminescence assay [73]. […] The EC50 values were calculated by nonlinear regression (curve fit) using a sigmoidal dose–response equation (Figure 2A and Figure S2).
The OOPs tested in this study were first dissolved in an appropriate DMSO volume such as to prepare a final stock solution of 50 mM, which was further used to prepare various compound concentrations in DMSO-based solutions. The final DMSO concentration in the cell culture was maintained constant in all treated groups of any given experiment and never exceeded the value of 0.2% (v/v). For the treatment experiments, cells were plated in 96-well culture plates, in 100 μL of complete medium at a seeding density of 5000–10,000 cells/well—depending on cells’ size and doubling time—and were allowed to adhere overnight (~16 h). The next day, 150 μL of complete medium was added to each well and the cells were treated with various concentrations of OOPs. Each concentration was tested in triplicate and was repeated 2–3 times. To prepare the final concentration solutions, 0.5 μL of a 500× stock of each tested compound in DMSO was added directly into each well in a final volume of 250 μL culture medium and was gently mixed by pipetting. Control wells were prepared under the same experimental conditions by adding only DMSO at a final concentration of 0.2% (v/v). Compounds were not renewed during the entire period of cell exposure. All cells were cultured at 37 °C in a 5% (v/v) CO2 for 24, 48 or 72 h.
Briefly, after the treatment with OOPs, the adapted medium was removed from the dish wells and the cells were washed twice with medium without FBS. Then, the C-lysis (LT27-076) was diluted in PBS (1:2) and a volume of 50 μL was added to each well. Cells were incubated with C-lysis for at least 10 min. […] Cell viability was quantified by measuring luminescence using a multi-mode microplate reader Safire^2 Tecan (software Magellan V6.00 STD.2PC WIN.20000/XP).

AGS = experiment: ATP assay under 1% (v/v) O2 versus 20% (v/v) O2, 72 h; type: cell-based, human; conditions: 1% (v/v) O2 vs 20% (v/v) O2
Experimental: The effects of drugs on cancer cell lines are usually tested under atmospheric conditions (20% (v/v) O2). However, the O2 content in tissues (normoxia) and solid tumors (hypoxia) is ≤ 5% (v/v). In some tumors (i.e., pancreatic tumors) the % O2 is even ≤ 1% (v/v). This affects cell metabolism and signaling pathways which depend on the hypoxia-induced Factor 1A (HIF1A) and it could affect the activity of certain drugs. […] The effects of these three OOPs were tested on the MDA-MB 231, SK-BR-3 and MCF-7 breast cancer and on the AGS stomach cancer cell lines.
Figure 6 Effect of O2 concentration on the antiproliferative/cytotoxic effect of OOPs. […] Cell viability was determined on (A) AGS, (B) MDA-MB 231, (C) MCF-7 and (D) SK-BR-3 cell lines using ATP-based luminescence assay. The results presented are from two independent experiments performed in triplicate. Bar graphs represent the mean cell count ± SE in each treatment group normalized to the control group (i.e., cells treated only with 0.2% (v/v) DMSO). * p < 0.05; ** p ≤ 0.01; *** p ≤ 0.001 (t-test) comparing the two different conditions.

MCF-7 [1] = experiment: EdU incorporation cell proliferation assay, 24 h; type: cell-based, human; conditions: for % EdU +ve ± SE (S-phase cells): 24 h treatment at EC50 concentration
Experimental: For this purpose, ten cancer cell lines (i.e., MDA-MB 231, SK-BR-3, MCF-7, A2058, SK-MEL-28, AGS, HepG-2, PANC-1, H1299 and Hela) originating from breast, melanoma, stomach, hepatic, pancreatic, lung and cervical tumors were analyzed in parallel with control samples (i.e., the same cells treated only with 0.2% (v/v) DMSO). […] Subsequently, the treated cells were allowed to incorporate 5-ethynyl-2′-deoxyuridine (EdU) into replicating DNA according to the protocol described in detail in the Experimental Section. […] In this study, after EdU incorporation, the nuclei of the entire cell population were stained with Hoechst and imaged by confocal microscopy (Experimental Section). EdU-positive nuclei, marked by green FL, as well as the total number of nuclei, marked by blue FL, were enumerated by applying the Icy image analysis algorithm on the digital images acquired by confocal microscopy.
Human cancer cells were plated onto sterile glass coverslips (10-mm diameter, 5161063, ThermoFisher Scientific, Waltham, MA, USA) in 24-well tissue culture plates, at a density 5 times the density of cells seeded in 96-well plate and at a final medium volume of 500 μL. In order to obtain homogeneous plating, 250 μL of the medium was added directly to the wells already containing coverslips. Using a tip perpendicularly, coverslips were pressed in order to ensure their attachment to the bottom of the well. The cells were then seeded by adding 250 μL of single-cell suspension drop by drop following a cross path. Immediately after seeding, the plate was shaken back and forth at least ten times to achieve homogeneous plating. The cells were allowed to adhere overnight (~16 h) at 37 °C and 5% (v/v) CO2. The next day, a volume of 500 μL fresh medium was added to each well and the treatment with OOPs was initiated by adding directly to the wells 2 μL of OOPs from the 500× stock in DMSO and immediately mixed afterward by pipetting. […] Control cells were prepared under the same experimental conditions using DMSO instead of the OOPs’ solutions in DMSO at the same final concentration (0.2% (v/v) DMSO). […]

A2058 = experiment: Annexin V-FITC/PI staining, flow cytometry; type: cell-based, human; conditions: 48 h at EC50
Excerpt: (§1) To discern whether cell death triggered by OOPs treatment occurred via apoptosis or necrosis under the experimental conditions applied in this study, live cells treated with OOPs were stained simultaneously with FITC-conjugated annexin V and propidium iodide (PI). Annexin V binds to phosphatidylserine (PS) translocating from the inner to the outer leaflet of the plasma membrane in apoptotic cells. Therefore, annexin V-FITC binding to PS labels live apoptotic cells with green FL. […] PS exposure to the extracellular space and cell membrane permeability were analyzed by flow cytometry as described in detail in the Experimental Section. […] OOP concentrations used were equal to the EC50 values for each cell line (Table 1). annexin V and PI staining discriminated between early- (i.e., annexin V +ve and PI −ve) and late-apoptotic cells (i.e., annexin V +ve and PI +ve), as well as between necrotic (i.e., annexin V −ve and PI +ve) and live (i.e., annexin V −ve and PI −ve) cells (Table 4).
(§2) Apoptosis and necrosis were assessed by double staining with annexin V-FITC and propidium iodide (PI) and were analyzed using flow cytometry (FACS). Human cancer cells were plated in 96-well culture plates in 100 μL of complete medium and were allowed to adhere overnight (~16 h). […] In detail, 0.5 μL of a 500× stock of each tested compound in DMSO was added directly into each well in a final volume of 250 μL culture medium and was gently mixed by pipetting. Control wells were prepared under the same experimental conditions by adding only DMSO at a final concentration of 0.2% (v/v). At the end of the treatment, the cells were detached by trypsinization, media with serum was added to deactivate trypsin, and the cells from three wells were pooled together by centrifugation (1000 rpm, 5 min, 24 °C), washed with cold PBS, centrifuged (1000 rpm, 5 min, 24 °C) and finally resuspended in cold 1× annexin V binding buffer (10 mM HEPES pH = 7.4, 150 mM NaCl, 2.5 mM CaCl2) at a density of 10^4 cells/mL. Staining was performed by incubating with annexin V- FITC and propidium iodide (PI; BioLegend) for 15 min at room temperature in the dark, according to the manufacturer’s instructions. Negative control samples consisted of cells treated only with 0.2% (v/v) DMSO for the same incubation time length (i.e., 48 h). Cells treated with Triton X-100 (0.25% (v/v)) for 5 min at 4 °C were used as controls for 100% permeabilization of the plasma membrane and maximum fluorescence staining with PI (positive control for cells in necrosis). The presence of live, apoptotic or necrotic cells was assessed with the FACS Calibur (Becton–Dickinson, San Jose, CA, USA). In total, 10,000 cells were analyzed per measurement and the acquired data were analyzed using the FlowJo V.10.0.8 software (Tree Star Inc., Ashland, OR, USA). Each condition was analyzed in duplicate, and the results presented are from 2 or 3 independent experiments.
(§3) Data showing OOPs’ apoptotic/necrotic effect were derived from two or three independent experiments and were presented as the means ± SE of the percentage (%) of both annexin V-positive cells (early apoptotic events) and % of annexin V/PI positive cells (late apoptotic events) over the whole cell population normalized to the corresponding events of the control cells, as determined using the FlowJo software.

HT-29 = experiment: Annexin V-FITC/PI staining, flow cytometry; type: cell-based, human; conditions: 48 h at EC50
Excerpt: as §1, §2, §3

MCF-7 [2] = experiment: Annexin V-FITC/PI staining, flow cytometry; type: cell-based, human; conditions: 48 h at EC50
Excerpt: as §1, §2, §3

MCF-7 [3] = conditions: cited from earlier work

| Compound | EC50 (WJ-MSC) [µM] | bioactivity under hypoxia versus atmospheric O2 (AGS) | % EdU +ve ± SE (S-phase cells) (MCF-7 [1]) [%] | % Cell Viability (A2058) [%] | Early Apoptotic (% ± S.D.) (A2058) [%] | Late Apoptotic (% ± S.D.) (A2058) [%] | Total Apoptotic (%) (A2058) | % Cell Viability (HT-29) | Early Apoptotic (% ± S.D.) (HT-29) [%] | Late Apoptotic (% ± S.D.) (HT-29) [%] | % Cell Viability (MCF-7 [2]) [%] | Early Apoptotic (% ± S.D.) (MCF-7 [2]) [%] | Late Apoptotic (% ± S.D.) (MCF-7 [2]) [%] | Total Apoptotic (%) (MCF-7 [2]) | EC50 (MCF-7 [3]; 48 or 72 h, different culture conditions, read-out: EC50) [µM] | EC50 (WJ-MSC; Homo sapiens) [µM] | % Inhibition ± SE of cell proliferation (MCF-7 [1]; 24 h at EC50, normalized with the control) [%] | Total Apoptotic (%) (HT-29) | EC50 (MCF-7 [3]; five days of treatment, ref Menendez et al. (2007) 17, read-out: concentration reducing cell viability by 50%) [µM] |
| --- | --- | --- | --- | --- | --- | --- | --- | --- | --- | --- | --- | --- | --- | --- | --- | --- | --- | --- | --- |
| ligstroside aglycone [4a,b] | 39.3 ± 3.8 | less effective under hypoxic conditions |  |  |  |  |  |  |  |  |  |  |  |  |  |  |  |  |  |
| C/C=C(/C=O)[C@@H](CC=O)CC(=O)OCCc1ccc(O)cc1 [compound 1, oleocanthal] |  | similar | 21.6 ± 4.0 | 36 | 5.05 ± 2.7 | 2.35 ± 1.7 | 7.40 ± 4.4 | 66% | 5.53 ± 1.1 | 6.10 ± 4.3 | 65 | 6.30 ± 2.3 | 3.77 ± 0.8 | 10.07 ± 3.1 | 18 to 40 |  |  |  |  |
| COC(=O)C1=COC(C)[C@@H](C=O)[C@@H]1CC(=O)OCCc1ccc(O)c(O)c1 (mixture of isomers) [3a,b, oleuropein aglycone] |  | similar | 21.1 ± 2.0 | 24 | 11.88 ± 2.3 | 7.26 ± 1.6 | 19.14 ± 0.7 | 41 ^a % | 6.95 ± 1.5 | 1.55 ± 1.5 | 69 | 7.03 ± 0.3 | 1.29 ± 0.8 | 8.31 ± 1.2 |  | 28.7 ± 0.3 | 19.3 ± 0.5 | 8.50 ± 1.8 ^a % | > 100 |
| C/C=C(/C=O)[C@@H](CC=O)CC(=O)OCCc1ccc(O)c(O)c1 [compound 2, oleacein] |  |  |  |  |  |  |  |  |  |  |  |  |  |  |  | 28.2 ± 11.1 |  |  |  |
